One block for each compound: values may come before it.
Columns and labels:
HDL cholesterol = assay: In vivo activity: oral action on lipoproteins and triglycerides in hamsters (HDL rise); design: species or system Syrian golden hamsters; details: dose 2 × 3 mg/kg, up to 24 hours
Procedure: In experiments to determine the oral action on lipoproteins and triglycerides, test substance dissolved in DMSO and 0.5% Tylose suspended by means of a stomach tube are administered orally to Syrian golden hamsters from in-house breeding. To determine the CETP activity, blood (about 250 μl) is taken by retro-orbital puncture before the start of the experiment. The test substances are then administered orally by means of a stomach tube. The control animals receive identical volumes of solvents without test substance. The feed is then withdrawn from the animals and blood is taken at various times--up to 24 hours after substance administration--by puncture of the retro-orbital venous plexus. Clotting is ended by incubation at 4° C. overnight, then centrifugation at 6000×g is carried out for 10 minutes. In the serum thus obtained, the content of cholesterol and triglycerides is determined with the aid of modified commercially available enzyme tests (cholesterol enzymatic 14366 Merck, triglycerides 14364 Merck). Serum is suitably diluted using physiological saline solution.
100 μl of serum dilution are mixed with 100 μl of […] in 96-hole plates and incubated at room temperature for 10 minutes. The optical density is then determined at a wavelength of 492 nm using an automatic plate-reading apparatus. The triglyceride or cholesterol concentration contained in the samples is determined with the aid of a standard curve measured in parallel.
The determination of the content of HDL cholesterol is carried out according to the manufacturer's instructions after precipitation of the ApoB-containing lipoproteins by means of a reagent mixture (Sigma 352-4 HDL cholesterol reagent).

[1] = tested on: lipoproteins and triglycerides; assay: In vivo activity in transgenic hCETP mice (lipoproteins and triglycerides); details: 400 ppm in the feed, one week
Procedure: Transgenic mice from in-house breeding (Dinchuck, Hart, Gonzalez, Karmann, Schmidt, Wirak; BBA (1995), 1295, 301) were administered the substances to be tested in the feed. Before the start of the experiment, blood was taken retro-orbitally from the mice in order to determine cholesterol and triglycerides in the serum. The serum was obtained as described above for hamsters by incubation at 4° C. overnight and subsequent centrifugation at 6000×g. After one week, blood was again taken from the mice in order to determine lipoproteins and triglycerides. The change in the parameters measured is expressed as a percentage change compared with the starting value.

[2] = target: T1, cholesterol ester transfer protein (CETP) (Homo sapiens, UniProt P11597); assay: CETP inhibition test: transfer of 3H-cholesterol ester from human HD lipoproteins to biotinylated LD lipoproteins (SPA); type: biochemical; details: human plasma CETP, 18 h, 37° C.
T1 construct: CETP is obtained from human plasma in partially purified form; from tissue; host or cells: human plasma
T1 sequence (P11597 18-493): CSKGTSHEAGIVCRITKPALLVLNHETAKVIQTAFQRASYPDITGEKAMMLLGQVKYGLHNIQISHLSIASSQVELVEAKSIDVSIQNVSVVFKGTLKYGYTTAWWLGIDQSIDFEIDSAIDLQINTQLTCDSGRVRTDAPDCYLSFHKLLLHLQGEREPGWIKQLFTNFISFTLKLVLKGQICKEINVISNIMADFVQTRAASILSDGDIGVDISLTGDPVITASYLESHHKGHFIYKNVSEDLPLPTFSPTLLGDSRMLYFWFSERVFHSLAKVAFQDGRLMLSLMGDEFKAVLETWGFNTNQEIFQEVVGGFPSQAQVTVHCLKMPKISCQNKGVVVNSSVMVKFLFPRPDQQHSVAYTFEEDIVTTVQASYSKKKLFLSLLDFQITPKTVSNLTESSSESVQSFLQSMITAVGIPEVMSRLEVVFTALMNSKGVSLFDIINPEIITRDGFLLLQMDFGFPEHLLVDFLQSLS
Procedure: CETP is obtained from human plasma in partially purified form by differential centrifugation and column chromatography and used for the test. To this end, human plasma is adjusted to a density of 1.21 g per ml using NaBr and centrifuged at 4° C. for 18 h at 50,000 rpm. The bottom fraction (d>1.21 g/ml) is applied to a Sephadex®phenyl-sepharose 4B (Pharmacia) column, washed with 0.15 M NaCl/0.001 M trisHCl pH 7.4 and then eluted with distilled water. The CETP-active fractions are pooled, dialysed against 50 mM Na acetate pH 4.5 and applied to a CM-Sepharose® (Pharmacia) column. The column is then eluted using a linear gradient (0-1 M NaCl). The pooled CETP fractions are dialysed against 10 mM trisHCl pH 7.4 and then further purified by chromatography on a Mono Q® column (Pharmacia).
50 ml of fresh human EDTA plasma are adjusted to a density of 1.12 using NaBr and centrifuged at 50,000 rpm for 18 h at 4° C. in a Ty 65 rotor. The upper phase is used to obtain cold LDL. The lower phase is dialysed against 3×4 l of PDB buffer (10 mM tris/HCl pH 7.4, […] NaCl, 1 mM EDTA, 0.02% NaN3). 20 μl of ^3 H-cholesterol (Dupont NET-725; 1 μC/μl dissolved in ethanol) are then added per 10 ml of retentate volume and the mixture is incubated under N2 at 37° C. for 72 h.
The mixture is then adjusted to the density 1.21 using NaBr and centrifuged at 20° C. for 18 h at 50,000 rpm in the Ty 65 rotor. The upper phase is recovered and the lipoprotein fractions are purified by gradient centrifugation. To this end, the isolated, labelled lipoprotein fraction is adjusted to a density of 1.26 using NaBr. Each 4 ml of this solution are covered with a layer of 4 ml of a solution of density 1.21 and 4.5 ml of a solution of 1.063 (density solutions from PDB buffer and NaBr) in centrifuge tubes (SW 40 rotor) and then centrifuged in the SW 40 rotor for 24 h at 38,000 rpm and 20° C. The intermediate layer lying between the densities 1.063 and 1.21 and containing the labelled HDL is dialysed at 4° C. against 3×100 volumes of PDB buffer.
The retentate contains radiolabelled ^3 H-CE-HDL which, adjusted to about 5×10^6 cmp per ml, is used for the test.
To test the CETP activity, the transfer of ^3 H-cholesterol ester from human HD lipoproteins to biotinylated LD lipoproteins is measured.
The reaction is ended by addition of streptavidin-SPA®beads (Amersham) and the transferred radioactivity is determined directly in a liquid scintillation counter.
In the test mixture, 10 μl of HDL-^3 H-cholesterol ester (~50,000 cpm) are incubated at 37° C. for 18 h with 10 μl of biotin-LDL (Amersham) in 50 mM Hepes/0.15 M NaCl/0.1% bovine serum albumin/0.05% NaN3 pH 7.4 with 10 μl of CETP (1 mg/ml) and 3 μl of solution of the substance to be tested (dissolved in 10% DMSO/1% RSA). 200 μl of the SPA-streptavidin bead solution (TRKQ 7005) are then added, the mixture is incubated further for 1 h with shaking and then measured in the scintillation counter. As controls, corresponding incubations with 10 μl of buffer, 10 μl of CETP at 4° C. and 10 μl of CETP at 37° C. are used.
The activity transferred into the control mixtures with CETP at 37° C. is rated as 100% transfer. The substance concentration at which this transfer is reduced by half is indicated as the IC50 value.

CETP = assay: Ex vivo activity: CETP activity in serum of treated hamsters (modified CETP test); design: species or system Syrian golden hamsters; details: for % Inhibition at 30 mg/kg: ex vivo CETP activity in hamster serum; for ED50 values for ex vivo activity: hamster serum, up to 24 hours after administration
Procedure: Syrian golden hamsters from in-house breeding are anaesthetized after fasting for 24 hours (0.8 mg/kg of atropine, 0.8 mg/kg of Ketavet® s.c., 30'later 50 mg/kg of Nembutal i.p.). The jugular vein is then exposed and cannulated. The test substance is dissolved in a suitable solvent (as a rule Adalat placebo solution: 60 g of glycerol, 100 ml of H2 O, PEG-400 to 1000 ml) and administered to the animals via a PE catheter inserted in the jugular vein. The control animals receive the same volume of solvent without test substance. The vein is then tied off and the wound is closed. The administration of the test substances can also be carried out p.o., by orally administering the substances dissolved in DMSO and suspended in 0.5% Tylose by means of a stomach tube. The control animals receive identical volumes of solvent without test substance.
After various times--up to 24 hours after administration--blood (about 250 μl) is taken from the animals by puncture of the retro-orbital venous plexus. Clotting is ended by incubation at 4° C. overnight, then centrifugation is carried out at 6000×g for 10 minutes. In the serum thus obtained, CETP activity is determined by the modified CETP test. As for the CETP test described above, the transfer of ^3 H-cholesterol ester from HD lipoproteins to biotinylated LD lipoproteins is measured.
The reaction is ended by addition of Streptavidin-SPA®beads (Amersham) and the transferred radioactivity is determined directly in the liquid scintillation counter.
The test mixture is carried out as described under "CETP test". For the testing of the serum, only 10 μl of CETP are replaced by 10 μl of the corresponding serum samples. As controls, corresponding incubations with sera of untreated animals are used.
The activity transferred in the control mixtures with control sera is rated as 100% transfer. The substance concentration at which this transfer is reduced to a half is indicated as the ED50 value.

IC50 [2]: 30 nM
SMILES: CC(C)c1nc2c(c(-c3ccc(F)cc3)c1C(F)c1ccc(C(F)(F)F)cc1)C(O)CC1(CCCC1)C2 (single isomer, unassigned) [Example 291]

IC50 [2]: 0.2 nM
SMILES: OC1CC2(CCCC2)Cc2nc(C3CCCC3)c(C(F)c3ccc(C(F)(F)F)cc3)c(-c3ccc(F)cc3)c21 (single isomer, unassigned) [Example 300]

IC50 [2]: 60 nM
SMILES: CC(C)c1nc2c(c(-c3ccc(F)cc3)c1C(F)c1ccc(C(F)(F)F)cc1)C(O)CC1(CC1)C2 (single isomer, unassigned) [Example 312]

IC50 [2]: 0.2 nM
SMILES: CC(C)c1nc2c(c(-c3ccc(F)cc3)c1C(F)c1ccc(C(F)(F)F)cc1)C(O)CC1(CC1)C2 (single isomer, unassigned) [Example 313]

IC50 [2]: 50 nM
SMILES: OC1CC2(CC2)Cc2nc(C3CCCC3)c(C(F)c3ccc(C(F)(F)F)cc3)c(-c3ccc(F)cc3)c21 (single isomer, unassigned) [Example 319]

IC50 [2]: 1.5 nM
SMILES: OC1CC2(CCC2)Cc2nc(C3CCCC3)c(C(F)c3ccc(C(F)(F)F)cc3)c(-c3ccc(F)cc3)c21 (centres unmarked) [Example 329]

The next lines start with the compound.

SMILES: CC1Cc2nc(C3CCCC3)c(C(F)c3ccc(C(F)(F)F)cc3)c(-c3ccc(F)cc3)c2C(O)C1 (single isomer, unassigned) [Example 76]
% HDL rise (HDL cholesterol): +15.81% | HDL (percentage change compared with the starting value) [1]: +31.25% | LDL (percentage change compared with the starting value) [1]: -15.3% | Triglycerides (percentage change compared with the starting value) [1]: -11.7% | IC50 [2]: 6 nM

SMILES: CC(C)c1nc2c(c(-c3ccc(F)cc3)c1C(F)c1ccc(C(F)(F)F)cc1)C(O)CC(C)(C)C2 (single isomer, unassigned) [Example 90]
IC50 [2]: 60 nM

SMILES: CC1(C)Cc2nc(C3CCCC3)c(C(F)c3ccc(C(F)(F)F)cc3)c(-c3ccc(F)cc3)c2C(O)C1 (single isomer, unassigned) [Example 91]
% HDL rise (HDL cholesterol): +12.58%

SMILES: CC1(C)Cc2nc(C3CCCC3)c(C(F)c3ccc(Cl)c(C(F)(F)F)c3)c(-c3ccc(F)cc3)c2C(O)C1 (single isomer, unassigned) [Example 170]
% Inhibition at 30 mg/kg (CETP): 60.1% | ED50 values for ex vivo activity (CETP): < 30 mg/kg

SMILES: CC1Cc2nc(C3CCCC3)c(C(F)c3ccc(C(F)(F)F)cc3F)c(-c3ccc(F)cc3)c2C(O)C1 (single isomer, unassigned) [Example 181]
% Inhibition at 30 mg/kg (CETP): 46.4% | ED50 values for ex vivo activity (CETP): > 30 mg/kg

SMILES: CC1(C)Cc2nc(C3CCCC3)c(C(F)c3ccc4ccccc4c3)c(-c3ccc(F)cc3)c2C(O)C1 (single isomer, unassigned) [Example 184]
% Inhibition at 30 mg/kg (CETP): 53.5% | ED50 values for ex vivo activity (CETP): < 30 mg/kg

SMILES: OCC1Cc2nc(C3CCCC3)c(C(F)c3ccc(C(F)(F)F)cc3)c(-c3ccc(F)cc3)c2C(O)C1 (single isomer, unassigned) [Example 211]
% HDL rise (HDL cholesterol): +7.54%

SMILES: CC(C)c1nc2c(c(-c3ccc(F)cc3)c1C(F)c1ccc(C(F)(F)F)cc1)C(O)CC1CC21 (single isomer, unassigned) [Example 237]
% HDL rise (HDL cholesterol): +21.03% | IC50 [2]: 800 nM

SMILES: CC1(C)Cc2nc(C3CCCC3)c(C(F)c3ccc4c(c3)OC(F)(F)O4)c(-c3ccc(F)cc3)c2C(O)C1 (single isomer, unassigned) [Example 244]
IC50 [2]: 60 nM

SMILES: CC1Cc2nc(C(C)C)c(C(F)c3ccc(C(F)(F)F)cc3)c(-c3ccc(F)cc3)c2C(O)C1 (centres unmarked) [Example 115]
% Inhibition at 30 mg/kg (CETP): 61.9% | ED50 values for ex vivo activity (CETP): < 30 mg/kg

SMILES: CC1Cc2nc(C(C)C)c(C(F)c3ccc(C(F)(F)F)cc3)c(-c3ccc(F)cc3)c2C(O)C1 (centres unmarked) [Example 117]
% Inhibition at 30 mg/kg (CETP): 86.0% | ED50 values for ex vivo activity (CETP): < 30 mg/kg

SMILES: CC1(C)Cc2nc(C3CCCC3)c(C(N=[N+]=[N-])c3ccc(C(F)(F)F)cc3)c(-c3ccc(F)cc3)c2C(O)C1 (centres unmarked) [Example 195]
IC50 [2]: 750 nM

SMILES: OC1CC(C2CC2)Cc2nc(C3CCCC3)c(C(F)c3ccc(C(F)(F)F)cc3)c(-c3ccc(F)cc3)c21 (centres unmarked) [Example 209]
% HDL rise (HDL cholesterol): +25.94%

Source: patent US6207671A, “Cycloalkano-pyridines” (Bayer Aktiengesellschaft, priority 1996, dated 2001)
